In EP1285918A1, “C7 Ester substituted taxanes as antitumor agents” (Florida State University Research Foundation, Inc., priority 2001, dated 2003):
Like-named read-outs stand apart in the source and are kept apart here.

Legend:
[1] = test system: A2780 Human Ovarian Carcinoma Xenografts; settings: for MDS (n) / Complete Response / Partial Response / Stable Disease / Survivors / Toxic Deaths / Mean Score: i.v. qd x 1 (mg/kg: Taxol 24, 1351 75.3, 1401 107.6, 1418 107.6, Taxotere 70); for MDS (n): 2.0 g cut-off; for MDS (n) / Complete Response / Partial Response / Stable Disease / Survivors / Toxic Deaths: Day 60; for Mean Score: tumor score 1 to 10, group mean; for survival extension compared to Group 1 controls: i.v. qd x 1 (mg/kg: Taxol 24, 1418 107.6, Taxotere 70)
Description: Other antitumor compounds were similarly formulated. […] The dosing volume was 0.3 ml per 20 g mouse.
Female NCr-nude mice (implanted subcutaneously with 1 mm^3 A2780 ovarian carcinoma fragments in the flank) were sorted into treatment groups of five mice each, except for the Taxotere treatment group including six mice. […] Dosing was initiated on Day 1. The antitumor compounds were given i.v. at an estimated maximum tolerated dose (MTD) appropriate for each agent on a qd x 1 schedule (single administration of compound). […] Taxotere was given i.v. on a qd x 1 schedule at a dose of 70 mg/kg. The vehicle was administered i.v. to control mice in Group 1 on the qd x 1 schedule. Treatment groups are detailed in Table 7. The study was terminated on Day 60.
(§1) The results are summarized in Table 8 and include mean days of survival (MDS), number of toxic deaths, number of survivors, number of complete or partial responses, and number with stable disease. The mean days of survival is the number of days after which a neoplasm reached a size of 2.0 g and the animal was euthanized. A complete response is obtained if the tumor is not palpable at the end of the study. A partial response is obtained if the tumor shrinks to a size smaller than its size on Day 1 of the study.

[2] = test system: SK-MES carcinoma; test: In vivo evaluation against SK-MES human lung carcinoma xenograft, i.v. (Example 11)
Description: (§2) Two antitumor compounds were formulated for an i.v. dosing regime prepared in the following vehicle: 10% ethanol, 10% Cremophor and 80% isotonic saline. […] Other compounds were formulated similarly.
(§3) The MTDs for the antitumor compounds were calculated from earlier single dose data for mice receiving i.v. administration of these compounds. […] Vehicle control animals were dosed twice intravenously with half the total volume being given separated by one hour. The study was terminated at Day 60.
as §1, with “1” for “8”, “1.5” for “2.0”
(§4) A tumor scoring system was designed to provide a more quantitative ranking of efficacy (therapeutic potential) among the antitumor agents evaluated against the different human solid tumor xenografts. Each mouse in a study was given a score of from 1 to 10 at the end of the study. The scores can be summarized as follows:
(§5) The individual score for each mouse was averaged into a mean score for each treatment group. […]

[3] = test system: NCI-H1299 (H1299) carcinoma; settings: i.v. split dose qd x 1 at MTD (Taxol 36 mg/kg, 1393 72.1 mg/kg), 6 mice/group, Day 60
Description: as §2, §3
as §1, with “1” for “8”, “1.5” for “2.0”
as §4, §5
The treatment protocol for the H1299 test was identical to the SK-MES test protocol. […]

[4] = test system: MX-1 Human Breast Carcinoma Xenograft; settings: i.v. qd x 1 (Taxol 36 mg/kg split dose, 1393 72.6 mg/kg)
Description: Antitumor compounds were formulated for an i.v. dosing regime (single i.v. bolus on qd x 1 schedule) prepared in the following vehicle: 5% ethanol, 5% Cremophor and 90% isotonic saline. […] Other compounds were similarly formulated. […] The dosing volume was 0.3 ml per 20 g mouse.
All vehicle control animals in the split dosing regimes were dosed twice intravenously with half the total volume being given separated by one hour. The study was terminated on Day 60.
(§6) The mean days of survival is the number of days after which a neoplasm reached a size of 2.0 g and the animal was euthanized. A complete response is obtained if the tumor is not palpable at the end of the study. A partial response is obtained if the tumor shrinks to a size smaller than its size on Day 1 of the study. […]

[5] = test system: SKMES Human Lung Carcinoma Xenograft
Description: Antitumor compounds were formulated for oral administration over a wide dose range in a study to investigate the efficacy of this compound against the SKMES human lung cancer xenograft. The antitumor compounds were prepared in the following vehicle: 5% ethanol, 5% Cremophor and 90% isotonic saline.
Female Nu/Nu mice (6-8 weeks of age; implanted with 1 mm^3 SKMES lung carcinoma fragments in the flank) were sorted into treatment groups of six mice each. SKMES size ranges and group mean SKMES size ranges were 126-448 mg and 238-241 mg, respectively. […] Treatments were administered as a single oral bolus on Day 1, and the study was terminated on Day 60.
as §6, with “which a SKMES neoplasm reached” for “which a neoplasm reached”

[6] = test system: MX-1 Human Breast Carcinoma Xenograft; settings: for Survivors / Complete Responses / Partial Responses / Stable Disease / Toxic Deaths / MDS (n): 6 mice/group, study end Day 60; for MDS (n): days until tumor reached 1.5 g
Description: The antitumor compounds were prepared in the following vehicle: 5% ethanol, 5% Cremophor and 90% isotonic saline.
Female Nu/Nu mice (12-13 weeks of age; implanted with 1 mm^3 MX-1 human breast carcinoma fragments in the flank) were sorted into treatment groups of six mice each (MX-1 tumor size ranges and group mean MX-1 tumor size ranges were 56-138 mg and 68-74 mg, respectively). […] All treatments were administered as a single oral bolus on Day 1, and the study was terminated on Day 60.
The mean days of survival is the number of days after which an MX-1 neoplasm reached a size of 1.5 g and the animal was euthanized. A complete response is obtained if the tumor is not palpable at the end of the study. A partial response is obtained if the tumor shrinks to a size smaller than its size on Day 1 of the study.

[7] = i.v. split dose qd x 1 at MTD (Taxol 36 mg/kg, 1393 72.1 mg/kg), 6 mice/group, Day 60
[8] = 5.2 mg/kg single oral bolus Day 1, 6 mice/group, study end Day 60
[9] = 10.4 mg/kg single oral bolus Day 1, 6 mice/group, study end Day 60
[10] = 20.8 mg/kg single oral bolus Day 1, 6 mice/group, study end Day 60
[11] = 42 mg/kg single oral bolus Day 1, 6 mice/group, study end Day 60
[12] = 73 mg/kg single oral bolus Day 1, 6 mice/group, study end Day 60
[13] = 104 mg/kg single oral bolus Day 1, 6 mice/group, study end Day 60
[14] = 73.4 mg/kg single oral bolus Day 1
[15] = 105 mg/kg single oral bolus Day 1
[16] = SKMES, 1418 single oral bolus 90 mg/kg (Group 4), 6 mice, Day 60
[17] = 70 mg/kg single oral bolus Day 1
[18] = 100 mg/kg single oral bolus Day 1

## CCC(=O)O[C@H]1C[C@H]2OC[C@@]2(OC(C)=O)[C@H]2[C@H](OC(=O)c3ccccc3)[C@]3(O)C[C@H](OC(=O)[C@H](O)[C@H](C=C(C)C)NC(=O)OC(C)(C)C)C(C)=C([C@@H](O)C(=O)[C@]12C)C3(C)C [Compound 1351]
[1]; 1351 75.3 mg/kg i.v. qd x 1
  total response rate: at least 20%
[1]
  MDS (n): 23.0 ± 1.7 (4) days
  Complete Response: 0
  Partial Response: 1
  Stable Disease: 0
  Survivors: 1
  Toxic Deaths: 0
  Mean Score: 3.6 ± 1.1

## CCC(=O)OC1CC2OCC2(OC(C)=O)C2C(OC(=O)c3ccccc3)C3(O)CC(OC(=O)C(O)C(NC(=O)OC(C)(C)C)c4ccco4)C(C)=C(C(O)C(=O)C12C)C3(C)C (stereo not shown) [Compound 1393, 3'-Desphenyl-3'-(2-furyl)-7-propionyl taxotere]
[2]; [7]
  Complete Response: six
[3]
  Survivors: 4
[4]; 6 mice/group, Day 60
  Survivors: 6
[5]; [8]
  Survivors: 1
[5]; [9]
  Survivors: 1
[5]; [10]
  Survivors: 0
[5]; [11]
  Survivors: 2
[5]; [12]
  Survivors: 5
[5]; [13]
  Survivors: 6
[6]; [14]
  Survivors: 5
[6]; [15]
  Survivors: 5

## CCC(=O)O[C@H]1C[C@H]2OC[C@@]2(OC(C)=O)[C@H]2[C@H](OC(=O)c3ccccc3)[C@]3(O)C[C@H](OC(=O)[C@H](O)[C@@H](NC(=O)OC(C)(C)C)c4ccco4)C(C)=C([C@@H](O)C(=O)[C@]12C)C3(C)C [Compound 1393, 3'-Desphenyl-3'-(2-furyl)-7-propionyl taxotere]
[2]; 1393 72.1 mg/kg i.v.
  complete response rate: 100%
  days between which complete responses occurred: 14 to 24 days
[2]; [7]
  Complete Response: 6
  Partial Response: 0
  Stable Disease: 0
  Toxic Deaths: 0
[2]; i.v. split dose qd x 1 at MTD (Taxol 36 mg/kg, 1393 72.1 mg/kg), tumor score 1 to 10 per mouse, group mean
  Mean Score: 10+0
[3]
  Toxic Deaths: 2
[4]; 6 mice/group, Day 60
  Partial Response: 1
  Stable Disease: 0
[4]; tumor score 1 to 10, group mean
  Mean Score: 9.8 ± 0.2
[5]; [8]
  Toxic Deaths: 0
[5]; [9]
  Toxic Deaths: 0
[5]; [10]
  Toxic Deaths: 0
[5]; [11]
  Toxic Deaths: 0
[5]; 42 mg/kg single oral bolus Day 1, 6 mice/group, study end Day 60, days until tumor reached 2.0 g
  MDS (n): 23.2 ± 4.8 (4) days
[5]; [12]
  % Total Response: 83.3%
  Toxic Deaths: 0
[5]; [13]
  % Total Response: 83.3%
  Toxic Deaths: 0
[5]; SKMES, 1393 single oral bolus 42 mg/kg (Group 7), 2.0 g cut-off
  MDS: 23.2 days
[6]; [14]
  Complete Responses: 4
  Partial Responses: 0
  Stable Disease: 1
  Toxic Deaths: 1
[6]; [15]
  Complete Responses: 5
  Partial Responses: 0
  Stable Disease: 0
  Toxic Deaths: 0

## CCC(=O)O[C@H]1C[C@H]2OC[C@@]2(OC(C)=O)[C@H]2[C@H](OC(=O)c3ccccc3)[C@]3(O)C[C@H](OC(=O)[C@H](O)[C@@H](NC(=O)OC(C)(C)C)c4ccoc4)C(C)=C([C@@H](O)C(=O)[C@]12C)C3(C)C [Compound 1401]
[1]
  MDS (n): 32.1 ± 3.9 (4) days
  Complete Response: 0
  Partial Response: 0
  Stable Disease: 1
  Survivors: 1
  Toxic Deaths: 0
  Mean Score: 3.4 ± 0.4

## CCC(=O)O[C@H]1C[C@H]2OC[C@@]2(OC(C)=O)[C@H]2[C@H](OC(=O)c3ccccc3)[C@]3(O)C[C@H](OC(=O)[C@H](O)[C@@H](NC(=O)OC(C)(C)C)c4cccs4)C(C)=C([C@@H](O)C(=O)[C@]12C)C3(C)C [Compound 1418]
[1]
  MDS (n): 32.0 ± 2.3 (5) days
  Complete Response: 0
  Partial Response: 0
  Stable Disease: 0
  Survivors: 0
  Toxic Deaths: 0
  Mean Score: 3 ± 0
  survival extension compared to Group 1 controls: approximately 300%
[5]; 90 mg/kg single oral bolus Day 1, 6 mice/group, study end Day 60
  Toxic Deaths: 0
[5]; SKMES, 1418 single oral bolus 90 mg/kg (Group 4)
  total response rate: 100%
[5]; [16]
  Complete Responses: four
  Partial Responses: two
[5]; po, 90 mg/kg
  % Total Response: 100%
  Complete Responses: 4
  Partial Responses: 2

## CC(=O)O[C@@]12CO[C@@H]1C[C@H](O)[C@@]1(C)C(=O)[C@H](O)C3=C(C)[C@@H](OC(=O)[C@H](O)[C@@H](NC(=O)OC(C)(C)C)c4ccccc4)C[C@@](O)([C@@H](OC(=O)c4ccccc4)[C@H]21)C3(C)C [docetaxel, reference compound]
[1]
  MDS (n): 27.4 ± 3.5 (5) days
  Complete Response: 0
  Partial Response: 0
  Stable Disease: 0
  Survivors: 0
  Toxic Deaths: 0
  Mean Score: 2.5 ± 0.3
  survival extension compared to Group 1 controls: 134%
[6]; [17]
  Complete Responses: 0
  Partial Responses: 0
  Stable Disease: 0
  Survivors: 0
  Toxic Deaths: 0
  MDS (n): 27.9 ± 4.3 (6) days
[6]; [18]
  Complete Responses: 0
  Partial Responses: 1
  Stable Disease: 0
  Survivors: 1
  Toxic Deaths: 0
  MDS (n): 27.1 ± 3.5 (5) days
[6]; MX-1, single oral bolus, Taxol 40 and 28 mg/kg groups together, Taxotere 100 and 70 mg/kg groups together, Day 60
  Partial Response: One
